According to ChEMBL document CHEMBL1154324, “Activity of mangosteen xanthones and teleocidin a-2 in death receptor expression enhancement and tumor necrosis factor related apoptosis-inducing ligand assays” (J Nat Prod, 2010):

The compounds below were run against Tumor necrosis factor receptor superfamily member 10B (Homo sapiens) (UniProt O14763) (assay: Induction of DR5 promoter activity in SacI gene expressing human DLD1 cells at 10 to 30 uM after 24 hrs by luciferase reporter gene assay relative to control). Conditions: DLD-1.
Sequence of Tumor necrosis factor receptor superfamily member 10B (Homo sapiens) (O14763 whole entry): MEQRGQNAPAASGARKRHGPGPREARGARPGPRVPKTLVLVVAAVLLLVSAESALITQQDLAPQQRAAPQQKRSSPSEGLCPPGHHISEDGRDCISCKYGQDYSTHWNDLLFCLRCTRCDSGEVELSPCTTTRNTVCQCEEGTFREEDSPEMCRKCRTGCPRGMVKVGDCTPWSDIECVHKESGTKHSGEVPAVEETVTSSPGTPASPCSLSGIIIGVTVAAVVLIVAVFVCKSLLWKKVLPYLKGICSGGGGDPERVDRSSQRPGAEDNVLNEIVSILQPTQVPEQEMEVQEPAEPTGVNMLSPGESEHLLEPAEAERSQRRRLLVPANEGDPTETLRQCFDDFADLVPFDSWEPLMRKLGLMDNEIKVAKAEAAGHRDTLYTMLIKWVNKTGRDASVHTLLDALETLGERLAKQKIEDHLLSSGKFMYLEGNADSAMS
Type: cell-based

Row | SMILES | fold change (FC)
1 | COc1c(O)cc2oc3cc4c(c(O)c3c(=O)c2c1CC=C(C)C)C=CC(C)(C)O4 | 4
2 | COc1c(O)cc2oc3cc(O)c(CC=C(C)C)c(O)c3c(=O)c2c1CC=C(C)C | 3.8
3 | CC(C)=CCc1c(O)c(CC=C(C)C)c2oc3c(O)ccc(O)c3c(=O)c2c1O | 3.1
